Results from patent publication US7285556B2, “Thienopyrimidine-based inhibitors of the src family” (Board of Regents, The University of Texas Systems, priority 2000, dated 2007).
Read-outs that look alike come from different tables or passages of the source.

Target: T1, Recombinant human Src (Homo sapiens, UniProt P12931)
T1 construct: made in house; host or cells: baculovirus-insect cell system
Test: Src tyrosine kinase activity, poly E4Y and 32P-ATP
Format: biochemical
Experimental: Recombinant human Src was expressed using the baculovirus-insect cell system and purified as published (Budde et al., 1993 and 2000). Recombinant Csk and the FGF receptor (FGFr) were expressed as glutathione-S-transferase fusion proteins using the pGEX expression vector and E. coli, and purified as described (Sun & Budde, 1995).
The tyrosine kinase activity of Src, Csk and FGFr was determined using poly E4Y and ^32P-ATP. Briefly, enzymes were assayed in a reaction mixture consisting of 0.15 M EPPS-NaOH (pH 8.0) with 6 mM MgCl2, 0.2 mM γ^32P-ATP (0.2-0.4 mCi/μmol), 10% glycerol, 0.1% Triton X-100, and poly E4Y. Poly E4Y is a synthetic peptide whose phosphorylation is measured in this assay by the addition of the radioactively labeled phosphate from the ATP (Budde et al., 1995). […] When ATP was varied (0, 50, 100 and 250 μM), poly E4Y was kept constant at 150 μg/ml.

[1] = Table 2, read-out: Src IC50 (especially good inhibitors of Src)
[2] = read-out: IC50 (preferred compounds for treatment of Src family-related disease)

T1 sequence (P12931 whole entry): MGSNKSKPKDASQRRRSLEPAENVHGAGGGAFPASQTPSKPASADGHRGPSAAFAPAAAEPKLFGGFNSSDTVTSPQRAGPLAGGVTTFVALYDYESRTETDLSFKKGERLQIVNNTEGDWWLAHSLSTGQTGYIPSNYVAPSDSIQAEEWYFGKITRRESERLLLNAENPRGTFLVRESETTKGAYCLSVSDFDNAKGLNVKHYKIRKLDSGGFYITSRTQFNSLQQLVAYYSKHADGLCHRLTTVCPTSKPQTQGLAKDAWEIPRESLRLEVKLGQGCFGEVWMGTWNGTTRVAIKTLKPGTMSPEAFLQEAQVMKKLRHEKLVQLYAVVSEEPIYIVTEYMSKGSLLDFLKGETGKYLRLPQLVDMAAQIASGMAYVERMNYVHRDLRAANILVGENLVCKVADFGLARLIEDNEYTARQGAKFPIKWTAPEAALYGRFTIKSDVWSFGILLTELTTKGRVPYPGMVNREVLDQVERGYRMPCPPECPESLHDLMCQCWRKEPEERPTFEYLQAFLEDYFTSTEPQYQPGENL

SMILES | IC50 [1] [µM] | IC50 [2] [µM]
Cc1c(-c2cccc(CO)c2)sc2c(NN=Cc3cccnc3)ncnc12 [Compound 440, 3-Pyridinecarboxaldehyde(6-(3-hydroxymethylphenyl)-7-methylthieno[3,2-d]pyrimidin-4-yl)hydrazone] | ≤ 2 | < 2
Cc1c(-c2cccc(CO)c2)sc2c(NN=Cc3ccc(C(=O)O)cc3)ncnc12 [Compound 441, 4-Carboxybenzaldehyde(6-(3-hydroxymethylphenyl)-7-methylthieno[3,2-d]pyrimidin-4-yl)hydrazone] | ≤ 2 | < 2
COc1ccc(C=NNc2ncnc3c(C)c(-c4cccc(CO)c4)sc23)cc1O [Compound 443, 3-Hydroxy-4-methoxybenzaldehyde(6-(3-hydroxymethylphenyl)-7-methylthieno[3,2-d]pyrimidin-4-yl)hydrazone] | ≤ 2 | < 2
Cc1c(/C=C/c2ccccc2)sc2c(NN=Cc3ccc(C(=O)O)cc3)ncnc12 [Compound 448, 4-Carboxybenzaldehyde(7-methyl-6-(trans-2-phenylvinyl)-thieno[3,2-d]pyrimidin-4-yl)hydrazone] | ≤ 2 | < 2
Cc1c(-c2ccc(C(=O)O)cc2)sc2c(NN=Cc3cccnc3)ncnc12 [Compound 453, 3-Pyridinecarboxaldehyde(6-(4-carboxyphenyl)-7-methylthieno[3,2-d]pyrimidin-4-yl)hydrazone] | ≤ 2 | < 2
Cc1c(-c2ccc(C(=O)O)cc2)sc2c(NN=Cc3cccs3)ncnc12 [Compound 455, 2-Thiophenecarboxaldehyde(6-(4-carboxyphenyl)-7-methylthieno[3,2-d]pyrimidin-4-yl)hydrazone] | ≤ 2 | < 2
COc1ccc(C=NNc2ncnc3c(C)c(-c4ccc(C(=O)O)cc4)sc23)cc1O [Compound 456, 3-Hydroxy-4-methoxybenzaldehyde(6-(4-carboxyphenyl)-7-methylthieno[3,2-d]pyrimidin-4-yl)hydrazone] | ≤ 2 | < 2
Cc1c(C(O)c2ccccc2)sc2c(NN=Cc3cccnc3)ncnc12 (stereo not shown) [Compound 457, 3-Pyridinecarboxaldehyde(6-(1-hydroxy-1-phenyl)methyl-7-methylthieno[3,2-d]pyrimidin-4-yl)hydrazone] | ≤ 2 | < 2

Continued, values first:

IC50 [1] [µM] | IC50 [2] [µM] | SMILES
≤ 2 | < 2 | Cc1c(C(O)c2ccccc2)sc2c(NN=Cc3ccc(C(=O)O)cc3)ncnc12 (stereo not shown) [Compound 458, 4-Carboxybenzaldehyde(6-(1-hydroxy-1-phenyl)methyl-7-methylthieno[3,2-d]pyrimidin-4-yl)hydrazone]
≤ 2 | < 2 | Cc1c(C(O)c2ccccc2)sc2c(NN=Cc3cccs3)ncnc12 (stereo not shown) [Compound 459, 2-Thiophenecarboxaldehyde(6-(1-hydroxy-1-phenyl)methyl-7-methylthieno[3,2-d]pyrimidin-4-yl)hydrazone]
≤ 2 | < 2 | COc1ccc(C=NNc2ncnc3c(C)c(C(O)c4ccccc4)sc23)cc1O (stereo not shown) [Compound 460, 3-Hydroxy-4-methoxybenzaldehyde(6-(1-hydroxy-1-phenyl)methyl-7-methylthieno[3,2-d]pyrimidin-4-yl)hydrazone]
≤ 2 | < 2 | Cc1c(C(O)c2ccsc2)sc2c(NN=Cc3cccnc3)ncnc12 (stereo not shown) [Compound 461, 3-Pyridinecarboxaldehyde(6-(1-hydroxy-1-[3-thienyl])methyl-7-methylthieno[3,2-d]pyrimidin-4-yl)hydrazone]
≤ 2 | < 2 | Cc1c(C(O)c2ccsc2)sc2c(NN=Cc3ccc(C(=O)O)cc3)ncnc12 (stereo not shown) [Compound 462, 4-Carboxybenzaldehyde(6-(1-hydroxy-1-[3-thienyl])methyl-7-methylthieno[3,2-d]pyrimidin-4-yl)hydrazone]
≤ 2 | < 2 | Cc1c(C(O)c2ccsc2)sc2c(NN=Cc3cccs3)ncnc12 (stereo not shown) [Compound 463, 2-Thiophenecarboxaldehyde(6-(1-hydroxy-1-[3-thienyl])methyl-7-methylthieno[3,2-d]pyrimidin-4-yl)hydrazone]
